Results: patent publication US6254889A, “Solid dispersion dosage form of amorphous xanthine derivative and enteric-coating polymer” (Kyowa Hakko Kogyo Co., Ltd., priority 1995, dated 2001)

Assay: Comparative absorbability test, oral administration to beagles (pharmacokinetics)
Format: in vivo
Conditions: male beagle, oral with 20 ml water, 0-24 h, in terms of 3 mg/kg (doses given: Examples 6-8 3 mg/kg, crystal 6 mg/kg, Comparative Example 1 4 mg/kg)

CCCn1c(=O)c2[nH]c(C34CC5CC(CC3C5)C4)nc2n(CCC)c1=O [Compound No. 1]
The Area under the Plasma Concentration Curve, Intact Drug (in terms of 3 mg/kg): 69.9 ± 2.6 ng·h/mL
